Measured values: patent publication US5705499A, “8-arylalkyl- and 8-arylheteroalkyl-5,11-dihydro-6H-dipyrido[3,2-B:2',3'-e][1]diazepines and their use in the treatment of HIV-1 infection” (Boehringer Ingelheim Pharmaceuticals, Inc., priority 1996, dated 1998)

Tested on: C8166-45 cell line
Test: MTT Assay (cytotoxicity)
Assay type: cell-based, human
Conditions: C8166-45 cells, five days

Structure (SMILES) | MTT Assay CC30
CCN1c2ncc([C@@H]3O[C@@H]3c3ccccc3)cc2C(=O)N(C)c2ccc(Cl)nc21 (relative stereo) [Example 46, 2Chloro-5,11-dihydro-11-ethyl-5-methyl-8-(2-phenyloxiranyl)-6H-dipyrido[3,2-b:2',3'-e][1,4]diazepin-6-one] | > 30 µM
CCN1c2ncc(CCc3cc[n+]([O-])cc3)cc2C(=O)N(C)c2ccc(Cl)nc21 [Example 8, 2-Chloro-5,11-dihydro-11-ethyl-8-[2-(4-(N-oxopyridyl))ethyl]-5-methyl-6H-dipyrido[3,2-b:2',3'-e][1,4]diazepin-6-one] | > 256 µM
CCN1c2ncc(CC(O)c3ccncc3)cc2C(=O)N(C)c2ccc(Cl)nc21 (centres unmarked) [Example 9, 2-Chloro-5,11-dihydro-11-ethyl-8-[2-hydroxy-2-(pyrid-4yl)ethyl-]5methyl-6H-dipyridol[3,2-b:2',3'-e][1,4]diazepin-6-one] | 150 µM
CCN1c2ncc(CC(F)c3ccncc3)cc2C(=O)N(C)c2ccc(Cl)nc21 (centres unmarked) [Example 11, 2-Chloro-5,11-dihydro-11-ethyl-8-[2-fluoro-2-(4-pyridyl)ethyl]-5-methyl-6H-dipyrido-[3,2-b:2',3'-e][1,4]diazepin-6-one] | 150 µM
CCN1c2ncc(CC(=O)c3ccncc3)cc2C(=O)N(C)c2ccc(Cl)nc21 [Example 12, 2-Chloro-5,11-dihydro-11-ethyl-8-[2-oxo-2-(4-pyridyl)ethyl]-5-methyl-6H-dipyrido[3,2-b:2',3'-e][1,4]diazepin-6-one] | 250 µM
CCN1c2ncc(CC(O)c3cc[n+]([O-])cc3)cc2C(=O)N(C)c2ccc(Cl)nc21 (centres unmarked) [Example 13, 2-Chloro-5,11-dihydro-11-ethyl-8-[2-hydroxy-2-(N-oxo-pyrid-4-yl)ethyl]-5-methyl-6H-dipyrido[3,2-b:2',3'-e][1,4]diazepin-6-one] | > 128 µM
CCN1c2ncc(CCc3cccc(N)c3)cc2C(=O)N(C)c2ccc(Cl)nc21 [Example 22, 8-[2-(3-Aminophenyl)ethyl]-2-chloro-5,11-dihydro-11-ethyl-5-methyl-6H-dipyrido[3,2-b:2',3'-e][1,4]diazepin-6-one] | 60 µM
CCN1c2ncc(CCc3cccc(NC(N)=O)c3)cc2C(=O)N(C)c2ccc(Cl)nc21 [Example 26, 2Chloro-5,11-dihydro-11-ethyl-5-methyl-8-2-[(3-ureidophenyl)ethyl]-6H-dipyrido[3,2-b:2',3'-e][1,4]diazepin-6-one] | 35 µM
CCN1c2ncc(CCc3cccc4[nH]ccc34)cc2C(=O)N(C)c2cccnc21 [Example 29, 5,11-Dihydro-11-ethyl-5methyl-8-[2-(4-indolyl)ethyl]-6H-dipyrido[3,2-b:2',3'-e][1,4]diazepin-6-one] | > 60 µM
CN1C(=O)c2cc(CCc3ccncc3)cnc2N(C2CC2)c2nc(Cl)ccc21 [Example 37, 2Chloro-11-cyclopropyl-5,11-dihydro-5-methyl-8-[2-(pyrid-4-yl)ethyl]-6H-dipyrido[3,2-b:2',3'-e][1,4]diazepin-6-one] | > 60 µM
CCN1c2ncc(CCc3ccncc3)cc2C(=O)N(C)c2ccc(F)nc21 [Example 38, 5,11-Dihydro-11-ethyl-2-fluoro-5-methyl-8-[2-(pyrid-4-yl)ethyl]-6H-dipyrido[3,2-b:2',3'-e][1,4]diazepin-6-one] | 150 to 175 µM
CCN1c2ncc(CC(O)c3ccncc3)cc2C(=O)N(C)c2ccc(F)nc21 (centres unmarked) [Example 40, 5,11-Dihydro-11-ethyl-2-fluoro-8-[2-hydroxy-2-(pyrid-4-yl)ethyl]-5-methyl-6H-dipyrido[3,2-b:2',3'-e][1,4]diazepin-6-one] | > 20 µM
CCN1c2ncc(CCc3ccc4ccccc4c3)cc2C(=O)N(C)c2ccc(F)nc21 [Example 41, 5,11-Dihydro-11-ethyl-2-fluoro-5-methyl-8-[2-(2-naphthyl)ethyl]-6H-dipyrido[3,2-b:2',3'-e][1,4]diazepin-6-one] | 20 µM
CCN1c2ncc(CCc3ccccc3C)cc2C(=O)N(C)c2cccnc21 [Example 62, 5,11-Dihydro-11-ethyl-5-methyl-8-[2-(2-tolyl)ethyl]-6H-dipyrido[3,2-b:2',3'-e][1,4]diazepin-6-one] | > 130 µM
CCN1c2ncc(CCc3ccccc3N)cc2C(=O)N(C)c2cccnc21 [Example 64, 8-[2-(2-Aminophenyl)ethyl]-5,11-dihydro-11-ethyl-5-methyl-6H-dipyrido[3.2-b:2',3'-e][1,4]diazepin-6-one] | > 200 µM
CCN1c2ncc(CCc3ccnc(C)c3)cc2C(=O)N(C)c2cccnc21 [Example 65, 5,11-Dihydro-11-ethyl-5-methyl-8-[2-(2-methylpyrid-4-yl)ethyl]-6H-dipyrido[3,2-b:2',3'-e][1,4]diazepin-6-one] | 230 µM
CCN1c2ncc(CCc3ccnc(C)c3)cc2C(=O)N(C)c2ccc(Cl)nc21 [Example 66, 2-Chloro-5,11-dihydro-11-ethyl-5-methyl-8-[2-(2-methylpyrid-4-yl)ethyl]-6H-dipyrido[3,2-b:2',3'-e][1.4]diazepin-6-one] | 100 µM
CCN1c2ncc(CCc3ccnc(CO)c3)cc2C(=O)N(C)c2ccc(Cl)nc21 [Example 67, 2-Chloro-5,11-dihydro-11-ethyl-5-methyl-8-[2-(2-hydroxymethyl-4-pyridyl)ethyl]-6H -dipyrido[3,2-b:2',3'-e][1,4]diazepin-6-one] | 128 µM

Structure (SMILES) | MTT Assay CC30
CCN1c2ncc(CCc3ccnc(C(N)=O)c3)cc2C(=O)N(C)c2ccc(Cl)nc21 [Example 69, 2-Chloro-5,11-dihydro-11-ethyl-5-methyl-8-[2-(2-carboxamidopyrid-4-yl)ethyl]-6H-dipyrido[3,2-b:2',3'-e][1,4]diazepin-6-one] | > 128 µM
CCN1c2ncc(CCc3ccccc3)cc2C(=O)Nc2c1nc(Cl)c(Br)c2C [Example 75, 3-Bromo-2-chloro-5,11-dihydro-11-ethyl-4-methyl-8-(2-phenylethyl)-6H-dipyrido[3,2-b:2',3'-e][1,4]diazepin-6-one] | > 130 µM
CCN1c2ncc(CCc3ccccc3)cc2C(=O)Nc2c(C)ccnc21 [Example 76, 5,11-Dihydro-11-ethyl-4-methyl-8-(2-phenylethyl)-6H-dipyrido[3,2-b:2',3'-e][1,4]diazepin-6-one] | > 130 µM
CCN1c2ncc(C=O)cc2C(=O)N(C)c2ccc(Cl)nc21 [Example 80, 2-chloro-5,11-dihydro-11-ethyl-8-formyl-5-methyl-6H-dipyrido[3,2-b:2',3'-e][1,4]diazepin-6-one] | 65 µM
CCN1c2ncc(CCl)cc2C(=O)N(C)c2ccc(Cl)nc21 [Example 82, 2-chloro-8-chloromethyl-5,11-dihydro-11-ethyl-5-methyl-6H-dipyrido[3,2-b:2',3'-e][1,4]diazepin-6-one] | > 256 µM
CCN1c2ncc(CCO)cc2C(=O)N(C)c2ccc(Cl)nc21 [Example 85, 2-chloro-5,11-dihydro-11-ethyl-8-(β-hydroxy)ethyl-5-methyl-6H-dipyrido[3,2-b:2',3'-e][1,4]diazepin-6-one] | > 256 µM
CCN1c2ncc(C(C)O)cc2C(=O)N(C)c2ccc(Cl)nc21 (stereo not drawn) [Example 86, 2-chloro-5,11-dihydro-11-ethyl-8-(α-hydroxy)ethyl-5-methyl-6H-dipyrido[3,2-b:2',3'-e][1,4]diazepin-6-one] | 256 µM
CCN1c2ncc(CNc3ccccc3)cc2C(=O)N(C)c2ccc(Cl)nc21 [Example 87, 2-chloro-5,11-dihydro-11-ethyl-5-methyl-8-(phenylamino)methyl-6H-dipyrido[3,2-b:2',3'-e][1,4]diazepin-6-one] | > 60 µM
CCN1c2ncc(CNc3cccc(N)c3)cc2C(=O)N(C)c2ccc(Cl)nc21 [Example 88, 8-(3-aminophenylamino)methyl-2-chloro-5,11-dihydro-11-ethyl-5-methyl-6H-dipyrido[3,2-b:2',3'-e][1,4]diazepin-6-one] | 60 µM
CCN1c2ncc(O)cc2C(=O)N(C)c2ccc(Cl)nc21 [Example 89, 2-chloro-5,11-dihydro-11-ethyl-8-hydroxy-5-methyl-6H-dipyrido[3,2-b:2',3'-e[]1,4]diazepin-6-one] | 130 µM
CCN1c2ncc(OCc3ccccc3)cc2C(=O)N(C)c2ccc(Cl)nc21 [Example 90, 2-chloro-5,11-dihydro-11-ethyl-5-methyl-8-phenylmethoxy-6H-dipyrido[3,2-b:2',3'-e][1,4]diazepin-6-one] | > 60 µM
CCN1c2ncc(COc3cc[n+]([O-])c(C)c3)cc2C(=O)N(C)c2ccc(Cl)nc21 [Example 94, 2-chloro-5,11-dihydro-11-ethyl-5-methyl-8-(N-oxo-2-methylpyrid-4-yloxy)methyl-6H-dipyrido[3,2-b:2',3'-e][1,4]diazepin-6-one] | 200 µM
CCN1c2ncc(COc3cc[n+]([O-])c(C(F)(F)F)c3)cc2C(=O)N(C)c2ccc(Cl)nc21 [Example 95, 2-chloro-5,11-dihydro-11-ethyl-5-methyl-8-(N-oxo-2-trifluoromethylpyrid-4-yloxy)methyl-6H-dipyrido[3,2-b:2',3'-e][1,4]diazepin-6-one] | 100 µM
CCN1c2ncc(COc3cc[n+]([O-])cc3)cc2C(=O)N(C)c2cccnc21 [Example 97, 5,11-dihydro-11-ethyl-5-methyl-8-((1-oxo-pyridin-4-yl)oxy)methyl-6H-dipyrido[3,2-b:2',3'-e][1,4]diazepin-6-one] | > 130 µM
CCN1c2ncc(COc3cccc([N+](=O)[O-])c3)cc2C(=O)N(C)c2ccc(Cl)nc21 [Example 98] | > 60 µM
CCN1c2ncc(COc3cccc(F)c3)cc2C(=O)N(C)c2ccc(Cl)nc21 [Example 101] | > 60 µM
CCN1c2ncc(COc3ccc(F)cc3)cc2C(=O)N(C)c2ccc(Cl)nc21 [Example 103, 2-chloro-5,11-dihydro-11-ethyl-8-(4-fluorophenyloxy)methyl-5-methyl-6H-dipyrido[3,2-b:2',3'-e][1,4]diazepin-6-one] | > 60 µM
